According to the METLIN SMRT retention time set (Domingo-Almenara et al. 2019):

Assay: gradient 5% acetonitrile 3 min, to 50% in 2 min, to 85% in 15 min, held 3 min, 100 µL/min
Conditions: column: Zorbax Extend-C18 2.1 x 50 mm; eluents: water / acetonitrile, 0.1% formic acid
Method in brief: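 Each retention time is based on an adduct peak selected computationally and verified by manual inspection. Measurements used HPLC–quadrupole time-of-flight mass spectrometry in positive and negative ionization mode on mixtures of ~100 pure standards. Chromatography ran on a Zorbax Extend-C18 column (2.1 × 50 mm, 1.8 μm) at 100 μL/min with water and acetonitrile, each containing 0.1% formic acid, and dead and dwell volumes of 40 μL and 900 μL.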

Compound	RP-LC retention time
CCCN1CCN(c2cc(C(=O)O)c3cc(NC(=O)c4cccc(Cl)c4)ccc3n2)CC1	654 s
COc1ccc(Nc2c(-c3ccc(OC)c(OC)c3)nc3cnccn23)cc1OC	672 s
Cc1csc(-c2ccc(N3CCN(C(=O)c4ccco4)CC3)nc2)n1	711 s
CC(C)c1ccc(S(=O)(=O)c2ccc(=O)n(CC(=O)N3CCN(c4ccc(F)cc4)CC3)n2)cc1	1000 s
O=C(Nc1nccs1)C1CCN(C(=O)c2cc(-c3ccccc3)on2)CC1	732 s
CCCn1cc(CCNS(=O)(=O)c2ccc(C)cc2)c2cccnc21	841 s
CCOC(=O)C1=C(C)NC2=C(C(=O)C(C(=O)OC)C(C)C2)C1c1ccccc1OC (stereo not drawn)	849 s
Cn1ncc2c(N3CCSCC3)nc(C(=O)NCc3ccc(F)cc3)nc21	823 s
Cc1ccc(C(=O)N2CCCC2c2nc(-c3cccc(Cl)c3)no2)cc1C (stereo not drawn)	1200 s
Cc1ccc(NC(=O)C2CCN(S(=O)(=O)c3ccc4c(c3)CCCC(=O)N4)CC2)cc1F	817 s
O=C(Cc1csc2nc(-c3cccc(Br)c3)cn12)NCc1ccc2c(c1)OCO2	869 s
CCC(=O)N1CCc2cc(N3CC(C(=O)Nc4ccc(OC)c(Cl)c4)CC3=O)ccc21 (stereo not drawn)	779 s
COc1ccc(S(=O)(=O)N2CCCn3ccnc3C2c2cnn(C)c2)cc1Cl (stereo not drawn)	618 s
CCn1c(=O)c(N2CCN(C(=O)NCc3ccccc3)CC2)nc2ccccc21	820 s
NS(=O)(=O)c1ccc(CCNCc2ccc(-c3ccc(Cl)cc3)o2)cc1	810 s
O=C(CCSCc1cnn(-c2ccccc2)c1-n1cccc1)N1CCN(c2ccccn2)CC1	707 s
COc1ccccc1N1CCN(c2ncc(S(=O)(=O)c3ccc(C(C)C)cc3)c(N)n2)CC1	1120 s
CCN1CCN(C(=O)C2CCCN(S(=O)(=O)c3ccc(OC)c(C)c3)C2)CC1 (stereo not drawn)	636 s
Cc1cc2c(cc1CNC(=O)c1ccco1)OCCCO2	750 s
COc1ccc(-c2nc3cnccn3c2Nc2ccc(C(=O)NC3CCCCC3)cc2)cc1OC	755 s
Cc1ccc(C(=O)NC2CCN(c3cc(-c4cccs4)[nH]n3)C2)c(C)c1 (stereo not drawn)	742 s
C=Cc1ccc(Cn2nc3c(S(=O)(=O)N4CCc5ccccc5C4)cccn3c2=O)cc1	1050 s

Compound	RP-LC retention time
O=C(NC1CCCCCC1)C1CCN(c2cncnc2N2CCCCC2)CC1	712 s
Cc1cc(OCC(=O)Nc2cc(F)ccc2F)nc(N2CCN(c3ccccc3)CC2)n1	900 s
Cc1ccc(NC(=O)Cn2nc(C(=O)N3CCOCC3)c3ccccc32)c(Br)c1	825 s
Cc1cc(C)n(-c2ccnc(NCc3cccnc3)n2)n1	588 s
N#CCNC(=O)C1CC(=O)N(CCc2c[nH]c3ccc(F)cc23)C1 (stereo not drawn)	661 s
O=C(Cc1cccs1)N1CCN(c2ccc(=O)n(-c3cccc(Cl)c3)n2)CC1	822 s
COC(=O)c1ccc(OC)c(Cn2cnc3c(-c4cccc(F)c4)csc3c2=O)c1	1080 s
CN(C)C[C@@H]1CN(c2ncccn2)C[C@H]1NC(=O)NCCc1ccccc1	600 s
CC(CNC(=O)c1cc2n(n1)CC(C)(C(=O)NC1CCCCC1)N(C)C2=O)c1ccccc1 (stereo not drawn)	795 s
Cc1cc2n(n1)CCCN2C(=O)CCC(=O)NC1CCN(Cc2ccccc2)CC1	579 s
CC1CN(c2ccc(Cl)cc2)c2nc3c(c(=O)n(CCN4CCOCC4)c(=O)n3C)n2C1 (stereo not drawn)	686 s
Cc1nc(NC(=O)Cn2nc3c(cc2=O)CCCCC3)sc1C	786 s
Cc1cc(Nc2ccc(NC(=O)Cc3cccs3)cc2)nc(N2CCCC2)n1	595 s
CCOc1ccccc1C(=O)NC1CCN(C(=O)c2cn[nH]c2-c2ccc(F)cc2)CC1	683 s
CCOc1ccccc1CN1CCO[C@@H](COC)[C@@H]1c1ccccc1	699 s
CCCCn1c(=O)c2c(nc3n2CCCCN3c2ccc(OCC)cc2)n(C)c1=O	1050 s
Cc1nc(-c2cn(C)c3ncccc23)sc1C(=O)NCc1ccc(F)cc1Cl	990 s
Fc1ccc(-c2nc(-c3ccc(-n4cccn4)nc3)no2)c(Cl)c1	1300 s
Cc1cc(C)n(-c2ccc(CNC(=O)c3ccc(Cl)s3)cc2)n1	892 s
COc1ccccc1-c1noc(C2CCCN2C(=O)Nc2cccc(F)c2)n1 (stereo not drawn)	894 s
O=C(NCCC1=CCCCC1)c1nnc(-c2ccc(S(=O)(=O)N3CCCC3)cc2)o1	1050 s
Cc1ccccc1NC(=O)CSc1ccc(-n2nccc2C)nn1	869 s

Compound	RP-LC retention time
COCCN1C(=O)c2ccccc2C(C(=O)NCc2ccco2)C1c1ccc(F)cc1 (stereo not drawn)	822 s
COc1ccc(NC(=O)c2cnc(N3CCN(C4CCCCC4)CC3)nc2N)cc1	631 s
O=C(NC1CC1)c1ccc(-n2cccc2)nc1	728 s
CC(=O)c1sc(NC(=O)C2COc3ccccc3O2)nc1C (stereo not drawn)	763 s
Cc1ccc(Cl)cc1NC(=O)NC1CCN(c2ccc(F)cc2)C1=O (stereo not drawn)	867 s
O=C(Cc1csc2nc(-c3ccccc3)cn12)Nc1ccc(F)c(Cl)c1	902 s
CC(C)(C)c1ccc2c(c1)N(S(=O)(=O)c1ccccc1)CC(C(=O)NC1CC1)O2 (stereo not drawn)	1080 s
Cc1cc(-c2nnc(-c3ccco3)o2)c(C)n1CC(=O)Nc1ccc(F)c(Cl)c1	941 s
CCOc1ccc(C2Cn3nnc(-c4nc(-c5ccccc5F)no4)c3CO2)cc1 (stereo not drawn)	1100 s
COCCNc1c(-c2ccccc2)nc2sc(C(=O)N(C)C)c(C)n12	643 s
CC(C)Oc1ccc(NC(=O)C2CCN(S(C)(=O)=O)c3ccccc3O2)cc1 (stereo not drawn)	935 s
CCn1cc(C2=CCN(S(=O)(=O)c3ccc(C(C)(C)C)cc3)CC2)c2cccnc21	1270 s
CCCS(=O)(=O)N1CCC(Cc2nc(-c3cccnc3)n[nH]2)C1 (stereo not drawn)	583 s
CN(C)c1ccc(C(=O)N2CCCC2c2nc(-c3ccccc3)no2)cc1 (stereo not drawn)	986 s
O=C(Cc1nc(-c2ccccn2)n[nH]1)Nc1ccc(F)c(F)c1	651 s
COc1ccc(-c2n[nH]c3c2C(c2ccc(OC)cc2OC)NC3=O)cc1 (stereo not drawn)	736 s
O=C1Nc2ccccc2SC1C(=O)N1CCC(C(=O)N2CCN(C3CCCCC3)CC2)CC1 (stereo not drawn)	590 s
Cc1ccc(NC(=O)C2CCN(S(=O)(=O)c3cc(C(=O)N4CCCC4)n(C)c3)CC2)cc1C	836 s
Cc1ccccc1Nc1c(-c2ccccc2)nc2ncccn12	759 s
CCN1C(=O)CN(C(=O)c2cccs2)CC12CCOCC2	631 s
CCS(=O)(=O)c1nc2ccc(NS(=O)(=O)c3ccccc3Cl)cc2s1	858 s
COc1ccc(CNC(=O)NC2CCN(c3ccc(F)c(C)c3)C2=O)cc1 (stereo not drawn)	783 s

Compound	RP-LC retention time
COc1ccccc1/C=C/c1nc(C#N)c(NCCN(C)C)o1	648 s
COc1ccc(-c2nc3ccc(Br)cn3c2Nc2ccc(C)cc2)cc1O	742 s
Cc1ccc(-n2c(=O)c3c(cc(C)n3C)n(CC(=O)Nc3cc(C)cc(C)c3)c2=O)cc1	844 s
O=C(CCc1nc2ccccc2n(CC(=O)NC2CCCCC2)c1=O)NC1CCCCC1	844 s
CCc1nn2c(CNC(=O)c3ccc(F)cc3)c(-c3ccccc3)nc2s1	914 s
CCC(C)NC(=O)N1CC(Oc2cccc(-c3nc(C)no3)c2)C1 (stereo not drawn)	801 s
Cc1cc(C)cc(NC(=O)N(C)CC2CCOC2)c1 (stereo not drawn)	743 s
Cc1ccc2c(c1)OCC(=O)N2Cc1nc(-c2ccccc2C)no1	1120 s
CCCn1cc(CCNC(=O)c2cccc(Br)c2)c2cccnc21	833 s
Cc1oc(C2CCN(S(=O)(=O)c3ccc(F)c(F)c3)CC2)nc1C(=O)N1CCCC1	936 s
CCCCS(=O)(=O)N1CCC(n2c(-c3ccc(OC)cc3)nc3cccnc32)C1 (stereo not drawn)	846 s
Cn1c(=O)sc2cc(S(=O)(=O)N3CCC(C(=O)NCc4ccccc4)CC3)ccc21	851 s
COc1ccc(-c2nc(C3CC(=O)N(c4ccc(Cl)cc4)C3)no2)cc1F (stereo not drawn)	1030 s
O=C(Cn1nc2c(Oc3ccc(Cl)cc3)nccn2c1=O)Nc1ccc(F)c(Cl)c1	990 s
CCc1nc2cc(-c3noc(COc4ccc(Cl)cc4)n3)ccc2o1	1170 s
Nc1cccc(-c2nccnc2N2CCCC2)c1	595 s
CNC(=O)Nc1ccc(OC)c(NC(=O)NC(=O)c2cc(F)c(F)cc2Cl)c1	784 s
CC(=O)Nc1ccc(C2(C(=O)NCc3ccc(F)c(Cl)c3)CCC2)cc1	795 s
CC(=O)N1CCC(C2CCN(C(=O)C3CC=CC3)C2)CC1 (stereo not drawn)	664 s
O=C(Nc1ccccn1)C1CCN(S(=O)(=O)c2ccc(-c3noc(C4CC4)n3)cc2)CC1	843 s
CCc1cccc(C)c1NC(=O)C1CCCN(S(=O)(=O)c2ccc(OC)c(Cl)c2)C1 (stereo not drawn)	1020 s
O=S(=O)(c1ccccc1)N1CCc2nc(-c3ccccc3)ncc2C1	1010 s
